In patent EP0308983A2, “NMR imaging with Mn(II) coordination compositions” (priority 1987, dated 1989):
Where “and” joins values, the source holds several entries; their conditions need not be identical. Equal entries are not always repeated.

Key:
[1] = Paramagnetic relaxation properties in water at 10 MHz (0.15T), RADX spin analyzer; assay type: physicochemical; settings: 10 MHz (0.15T)
Outline: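 Mn(II) complexes in water were measured after thermal equilibrium at 37°C. T₁ (spin-lattice) and T₂ (spin-spin) relaxation values were recorded, in triplicate where stated.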

[2] = Paramagnetic relaxation properties in human plasma at 37°C; assay type: physicochemical
[3] = test system: Rats; settings: IV, standard conditions, 10 animals per dosage group
Text: The doses were 0.3, 0.5, and 0.8 mmole/kg. 10 Animals were used in each dosage group.

[4] = Stability of aqueous solutions after addition of a NaOH solution; settings: ratio of OH⁻ to compound of 0.2; 161 mM (glycine) or 167 mM (gluconate) aqueous solution
Method: NMR contrast agents must be stable in solution under adverse conditions to be effective as pharmaceutical agents.
One ml of a 161 mM solution (initial pH 5) was placed in a test tube at 19°C. Sodium hydroxide (0.032 ml; 1 N) was added to the solution, giving a ratio of OH⁻ to compound of 0.2.
[Manganese(II)·(H₂O)₂·(gluconate)₂]⁺²(Cl₂)⁻² was prepared according to the procedure of Example 24. Deionized water was added to form a 167 mM clear solution. One mole equivalent of sodium hydroxide solution was added to five mole equivalents of the [manganese(II)·(H₂O)₂·(gluconate)₂]⁺²(Cl₂)⁻² solution, giving a ratio of OH⁻ to compound of 0.20.

[5] = test system: New Zealand white rabbit
Method: This solution was infused into a New Zealand white rabbit (3.1 kg wt.) at 0.065 mmole/kg/min for 5 min to achieve a total dose of […]. […] 15 Min after the infusion, the rabbit was sacrificed by lethal pentobarbitol injection, and the heart and liver were removed. Samples of these organs were tested for relaxation time at 0.15 T with a RADX spectrometer (Houston, TX).
At a lower dose level (0.10 mmole/kg), the effects of a rapid bolus injection (10 sec) or a slow infusion (over 5 min) were tested in two New Zealand white rabbits. 15 Min after the end of the infusion or injection, the animals were sacrificed and T₁ and T₂ values were measured on 4-16 individual samples of kidney, liver and heart tissue.

[6] = test system: New Zealand white rabbits; settings: rabbit, 1.5 T
Method: A General Electric Signa Magnetic Resonance Imaging System, operating at 1.5 T, and using a knee surface coil was used. New Zealand white rabbits (ca. 2.5 kg wt.) were used for imaging. […] With these instrument settings, an image could be acquired in about 1.3 min. Images of the rabbit kidney and liver were taken before injection and at 1, 3, 6, 8, 12, 16, 21, 26, 36, 46, and 56 min intervals after injection.
Schematic drawings of the images before injection and at intervals of 10 and 60 minutes are show in Fig. 1, 2 and 3, respectively.

[7] = Plasma clearance: plasma T₁ and T₂ times after injection; assay type: in vivo; settings: rabbit, 0.1 mmole/kg; for plasma T₁ / plasma T₂: 0.15 T
Method: A dose of 0.1 mmole/kg of GdDTPA was injected into a rabbit and blood samples were drawn at 10 min intervals for 50 min. The blood was centrifuged, and the plasma T₁ and T₂ times were measured at 0.15 T with a RADX PROTON SPIN ANALYZER (Houston, TX).

[8] = 0.99 mM solution in water, 37°C, triplicate, mean +/- SD
[9] = 37°C, repeat measurement 80 minutes later
[10] = 0.10 mmole/kg, bolus (10 sec), 15 min after, mean of samples
[11] = 0.10 mmole/kg, slow infusion (over 5 min), 15 min after, mean of samples
[12] = infusion 0.065 mmole/kg/min for 5 min, total dose 0.31 mole/kg, 15 min after infusion, 0.15 T

NCC(=O)O.NCC(=O)O.O.O.[Cl-].[Cl-].[Mn+2] [[Manganese(II)·(H₂O)₂·(glycine)₂]⁺²(Cl₂)⁻²]
spin-lattice (T₁) relaxation value [1, 8]: 109 ± 5 ms | spin-spin (T₂) relaxation value [1, 8]: 26 ± 1 ms | millimolar relaxivity for T₁ ([1]; in water, calculated from T₁ and concentration): 9.27 mM⁻¹ s⁻¹ | millimolar relaxivity for T₂ ([1]; in water, calculated from T₂ and concentration): 38.9 mM⁻¹ s⁻¹ | T₂ value ([2]; 94 µM final concentration, 37°C): 184 ± 12 ms | T₁ value ([2]; 94 µM final concentration, 37°C, triplicate): 227 ± 3 ms | R₁ ([2]; 37°C): 46.9 mM⁻¹ s⁻¹ | R₂ ([2]; 37°C): 57.8 mM⁻¹ s⁻¹ | T₁ changed by (repeat measurement) [2, 9]: 2% | T₂ changed by (repeat measurement) [2, 9]: 2% | T₂ relaxivity in plasma, fold greater than GdDTPA ([2]; versus GdDTPA): 12.0 fold | T₁ relaxivity in plasma, fold greater than GdDTPA ([2]; versus gadolinium diethylenetriaminepentaacetic acid chelate (GdDTPA)): 9.8 fold | LD₅₀ [3]: 0.70 mmol/kg | stability after addition of a NaOH solution [4]: the solution remained clear with no discoloration or formation of a precipitate | Heart T₁, Bolus Injection, Mean [5, 10]: 156 ms | Heart T₂, Bolus Injection, Mean [5, 10]: 40 ms | Kidney T₁, Bolus Injection, Mean [5, 10]: 109 ms | Kidney T₂, Bolus Injection, Mean [5, 10]: 40 ms | Liver T₁, Bolus Injection, Mean [5, 10]: 51 ms | Liver T₂, Bolus Injection, Mean [5, 10]: 18 ms | Liver T₂, Infusion ([5]; 0.10 mmole/kg, slow infusion (over 5 min), 15 min after, individual tissue samples): 15 msec (2×) and 11 msec and 20 msec | Heart T₁, Infusion, Mean [5, 11]: 179 ms | Heart T₂, Infusion, Mean [5, 11]: 41 ms | Kidney T₁, Infusion, Mean [5, 11]: 120 ms | Kidney T₂, Infusion, Mean [5, 11]: 45 ms | Liver T₁, Infusion, Mean [5, 11]: 39 ms | Liver T₂, Infusion, Mean [5, 11]: 15 ms | tolerance of the infusion ([5]; infusion 0.065 mmole/kg/min for 5 min, total dose 0.31 mole/kg): tolerated the infusion without outward signs of a pharmacologic or toxicologic effect | heart T₁ [5, 12]: 45 ms | heart T₂ [5, 12]: 21 ms | liver T₁ [5, 12]: 19 ms | liver T₂ [5, 12]: 10 ms | liver parenchyma image intensity ([6]; image after one hour (60 min)): returned to normal intensity | enhancement of the liver and parenchyma in the image ([6]; one min after injection, doses of 10 and 20 µmole/kg, Spin Echo TR = 300 msec, TE = 20 msec): over 100% | time for which the plasma T₁ was maintained below 250 [7]: 40 min | plasma T₁ ([7]; 0 min (baseline)): 1600 ms | plasma T₂ ([7]; 0 min (baseline)): 447 ms | plasma T₁ ([7]; 10 min): 58 ms | plasma T₂ ([7]; 10 min): 42 ms | plasma T₁ ([7]; 20 min): 102 ms | plasma T₂ ([7]; 20 min): 65 ms | plasma T₁ ([7]; 30 min): 156 ms | plasma T₂ ([7]; 30 min): 110 ms | plasma T₁ ([7]; 40 min): 224 ms | plasma T₂ ([7]; 40 min): 156 ms | plasma T₁ ([7]; 50 min): 259 ms | plasma T₂ ([7]; 50 min): 180 ms | plasma T₁ ([7]; 60 min): 323 ms | plasma T₂ ([7]; 60 min): 205 ms | plasma T₁ ([7]; 70 min): 453 ms | plasma T₂ ([7]; 70 min): 257 ms | plasma T₁ ([7]; 80 min): 550 ms | plasma T₂ ([7]; 80 min): 293 ms | plasma T₁ ([7]; 90 min): 625 ms | plasma T₂ ([7]; 90 min): 295 ms
